Experimental data as given in patent publication US20140023611A1 (priority 2010, published 2014).

What was measured:
[1] = Determination of compound Cmax and AUC after oral gavage (plasma LC-MS/MS); format: in vivo, Sprague-Dawley rats; settings: Sprague-Dawley, rat, plasma, po, Structure (I) examples, Table 15, actual oral dose 3-15 mg/kg, plasma 0.5-4 h
Summary of the method: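 Plasma exposure measured by LC-MS/MS after acetonitrile precipitation with internal standard, quantified against a standard curve made in plasma. Compound given orally by gavage to Sprague-Dawley rats at nominal 2.5 or 10 mg/kg, with K2EDTA plasma sampled at 0.5, 1, 2 and 4 h.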

[2] = Stability of compounds in simulated gastric fluid (SGF); format: in vitro ADME; settings: simulated gastric fluid (3 mg/mL pepsin), incubation time 6 hr, relative to t=0
Summary of the method: (§1)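 Compounds at […] were incubated 3 or 6 hr in USP simulated gastric fluid with 3 mg/mL pepsin or simulated intestinal fluid with 3 mg/mL pancreatin. Remaining compound was quantified by HPLC-UV or HPLC-MS peak area % and reported as percent of the t=0 level in the same medium.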

[3] = test system: Uptake of Phosphorus from the Intestine; assay: In vivo co-dosing in chow (urine P out / P consumed); settings: Rattus norvegicus, feed or water, rats, compound in chow, read-out: Mean % inhibition Urine Pout/P consumed; for inhibition in vivo at 100 mg/kg/day: mean drug dose 100 mg/kg/day
Source text: Male, 7-week-old Sprague-Dawley rats (Charles-River laboratories international, Hollister, Calif.) were allowed to acclimate for a minimum of 3 days. The experiment was initiated by switching animals to a synthetic diet (0.6% phosphorus and 0.6% calcium, Harlan Teklad TD.84122) for four days. After this time, the animals were placed into metabolic cages for daily monitoring of food and water consumption, as well as urine and fecal collections. Test compounds were incorporated into the powdered diet listed above containing 3% chocolate flavoring (w/w, BioServ #7345) at 1.3 mg test compound per gram of diet to achieve an average daily nominal dose of 100 mg/kg/day. The actual dose received by each animal was later determined by measuring prepared diet consumption and body weight. Urine samples were collected in three daily periods from 24-48, 48-72, and 72-96 hours of drug dosing. Averaging these three 24 h periods allows for the more representative measurements of urination, fecal excretion, food consumption and water uptake for each animal. Phosphorus levels in the urine were determined by anion exchange chromatography using a Dionex ICS-3000 ion chromatography system. Urine samples were diluted 1:500 or 1:1000 and injected onto an IonPac AS18 analytical column (2×250 mm) using a potassium hydroxide eluent. Elution of urine phosphate ions was monitored via conductivity detector and reported as ppm relative to a standard ion solution containing phosphate. Daily urinary P output relative to the P consumed in the prepared diet for each animal was calculated. The percentage inhibition of phosphorus absorption was estimated by determining the reduction of this ratio compared to the control group (animals with no drug in chow). The differences between the means of control and treated groups were evaluated by t tests. In all experiments, one group was always included that had Renvela powder blended into their chow at 0.9% targeting a dose of 750 mg/kg.

[4] = Stability of compounds in simulated intestinal fluid (SIF); format: in vitro ADME; settings: simulated intestinal fluid (3 mg/mL pancreatin), incubation time 6 hr, relative to t=0
Summary of the method: as §1

[5] = target: T1, rat NaP2b (SLC34A2) (Rattus norvegicus, UniProt Q9JJ09); assay: Inhibition of NaP2b-mediated Pi (33P) uptake in transfected HEK293 cells, rat NaP2b; format: cell-based; settings: 33P Pi uptake, 0.1 mM phosphate, value given as pIC50 range
T1 construct: host or cells: HEK293
T1 sequence (Q9JJ09 1-695): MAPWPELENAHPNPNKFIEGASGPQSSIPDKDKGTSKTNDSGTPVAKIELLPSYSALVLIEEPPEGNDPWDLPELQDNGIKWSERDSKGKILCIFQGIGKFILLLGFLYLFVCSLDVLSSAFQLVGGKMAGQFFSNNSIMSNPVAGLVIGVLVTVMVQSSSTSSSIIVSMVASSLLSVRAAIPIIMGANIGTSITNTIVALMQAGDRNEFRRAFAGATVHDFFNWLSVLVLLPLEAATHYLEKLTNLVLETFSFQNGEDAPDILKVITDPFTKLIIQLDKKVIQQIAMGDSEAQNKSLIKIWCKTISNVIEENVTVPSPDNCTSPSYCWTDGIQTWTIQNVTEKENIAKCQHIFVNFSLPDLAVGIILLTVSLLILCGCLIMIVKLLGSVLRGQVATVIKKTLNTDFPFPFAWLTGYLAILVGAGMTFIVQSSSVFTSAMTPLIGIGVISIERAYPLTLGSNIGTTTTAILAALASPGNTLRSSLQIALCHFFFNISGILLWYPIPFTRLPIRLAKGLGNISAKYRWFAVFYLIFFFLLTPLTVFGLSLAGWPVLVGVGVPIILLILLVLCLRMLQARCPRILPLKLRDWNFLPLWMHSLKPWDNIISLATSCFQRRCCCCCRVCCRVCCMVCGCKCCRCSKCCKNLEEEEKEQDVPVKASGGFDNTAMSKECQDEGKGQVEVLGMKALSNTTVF
Summary of the method: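 The cells transiently expressed NaP2b after Lipofectamine transfection. Each compound was run in duplicate over twelve concentrations, 0.1 nM–30 uM.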

[6] = Fecal recovery of orally administered compounds; format: in vivo, Sprague-Dawley rats; settings: Structure (I) examples, Table 16; rat, oral gavage, feces collected until 48 hr after dosing
Source text: (§2) The animals were kept in metabolic cages and feces were collected from the time of dosing until 48 hr after dosing. Upon collection, feces were dried by lyophilization and ground to a visually homogenous powder. Duplicate samples of ground feces from each individual animal were weighed out and extracted using organic solvent. […] Extraction conditions were not optimized for individual compounds, and thus may represent a minimal level of recovery.
as §2, with “collection, feces was dried by” for “collection, feces were dried by”
as §2, with “collection, feces was dried by” for “collection, feces were dried by”
The animals were kept in metabolic cages and feces were collected from the time of dosing until 48 hr after dosing. Upon collection, feces was dried by lyophilization and ground to a visually homogenous powder. Duplicate samples of ground feces from each individual animal were weighed out and extracted using organic solvent.

[7] = target: T2, human NaP2b (SLC34A2) (Homo sapiens, UniProt O95436); assay: Inhibition of NaP2b-mediated Pi (33P) uptake in transfected HEK293 cells, human NaP2b; format: cell-based; settings: read-out: pIC50 range for human NaP2b (converted)
T2 construct: host or cells: HEK293
T2 sequence (O95436 1-690): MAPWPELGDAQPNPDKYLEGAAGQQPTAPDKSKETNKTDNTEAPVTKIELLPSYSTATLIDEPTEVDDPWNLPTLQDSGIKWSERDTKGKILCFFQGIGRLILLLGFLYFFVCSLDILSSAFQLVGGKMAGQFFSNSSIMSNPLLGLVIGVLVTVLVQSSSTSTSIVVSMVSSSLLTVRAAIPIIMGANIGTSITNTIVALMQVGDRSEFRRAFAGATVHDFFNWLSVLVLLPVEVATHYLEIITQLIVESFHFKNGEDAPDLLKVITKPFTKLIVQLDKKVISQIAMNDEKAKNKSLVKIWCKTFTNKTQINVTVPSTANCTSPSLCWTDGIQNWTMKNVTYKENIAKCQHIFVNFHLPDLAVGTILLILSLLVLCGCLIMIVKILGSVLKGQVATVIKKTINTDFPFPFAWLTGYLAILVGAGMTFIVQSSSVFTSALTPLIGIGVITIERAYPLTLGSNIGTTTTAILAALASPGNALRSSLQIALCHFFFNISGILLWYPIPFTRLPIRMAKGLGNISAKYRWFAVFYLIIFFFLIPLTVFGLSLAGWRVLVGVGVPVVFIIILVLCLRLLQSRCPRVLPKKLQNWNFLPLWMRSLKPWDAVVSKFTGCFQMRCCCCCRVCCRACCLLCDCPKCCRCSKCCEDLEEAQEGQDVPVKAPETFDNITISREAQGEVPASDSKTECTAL
Summary of the method: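 Uptake of 33P-phosphate (100 uM KH2PO4 carrier, sodium vs choline buffer, pH 7.4) measured after 3-30 min at room temperature, with test compound at twelve concentrations from 0.1 nM to 30 uM in duplicate. Cells were HEK293 transfected with mutated human NaP2b (Thr insertion after 37, N39D) and treated with a PiT-silencing agent. pIC50 values from scintillation counts.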

Structure (SMILES) | AUC [1] [ng·h/mL] | Cmax [1] [ng/mL] | % remaining, SGF [2] [%] | % remaining, SIF [4] | IC50 [5] [nM] | % recovered in feces [6] [%] | IC50 [7] [nM] | inhibition in vivo at 100 mg/kg/day [3] [%] | inhibition in vivo at 130 mg/kg/day ([3]; mean drug dose 130 mg/kg/day) [%] | inhibition in vivo at 74 mg/kg/day ([3]; mean drug dose 74 mg/kg/day) [%] | inhibition in vivo at 90 mg/kg/day ([3]; mean drug dose 90 mg/kg/day) [%]
O=C(NCc1cccc(C(F)(F)F)c1)c1ccnc(-c2cc(N3CCCCC3)ccc2NC(=O)c2cccc(CSCCCO)c2)c1 [Example 8.3] |  |  |  |  | 1000 to 7940 | <20 |  |  |  |  | 
CCN(CC)c1ccc(NC(=O)c2cccc(C(=O)N(C)CCN3CCOCC3)c2)c(-c2cc(C(=O)NCc3cccc(C(F)(F)F)c3)ccn2)c1 [Example 25] | < 30 | < 30 |  |  |  |  |  |  |  | 10 to 30 | 
CCN(CC)c1ccc(NC(=O)c2cccc(CSCCOCCOCCOCCOCCC(=O)NC(CO)(CO)CO)c2)c(-c2cc(C(=O)NCc3cccc(C(F)(F)F)c3)ccn2)c1 [Example 163, 2-(5-(diethylamino)-2-(3-(20-hydroxy-19,19-bis(hydroxymethyl)-17-oxo-5,8,11,14-tetraoxa-2-thia-18-azaicosyl)benzamido)phenyl)-N-(3-(trifluoromethyl)benzyl)isonicotinamide] |  |  | >80 | 60-80% | 1000 to 7940 |  | 1000 to 7940 | ≤ 10 |  |  | 
CCN(CC)c1ccc(NC(=O)c2cccc(CSCCOCCOCCOCCOCCC(=O)N(CCO)CCO)c2)c(-c2cc(C(=O)NCc3cccc(C(F)(F)F)c3)ccn2)c1 [Example 164, 2-(5-(diethylamino)-2-(3-(20-hydroxy-18-(2-hydroxyethyl)-17-oxo-5,8,11,14-tetraoxa-2-thia-18-azaicosyl)benzamido)phenyl)-N-(3-(trifluoromethyl)benzyl)isonicotinamide] |  |  | >80 | 60-80% | 1000 to 7940 |  | < 1000 | ≤ 10 |  |  | 

Further lines, with some results ahead:

AUC [1] [ng·h/mL] | Cmax [1] [ng/mL] | % remaining, SGF [2] [%] | % remaining, SIF [4] | IC50 [5] [nM] | % recovered in feces [6] [%] | IC50 [7] [nM] | Structure (SMILES) | inhibition in vivo at 100 mg/kg/day [3] [%] | inhibition in vivo at 130 mg/kg/day ([3]; mean drug dose 130 mg/kg/day) [%] | inhibition in vivo at 74 mg/kg/day ([3]; mean drug dose 74 mg/kg/day) [%] | inhibition in vivo at 90 mg/kg/day ([3]; mean drug dose 90 mg/kg/day) [%]
< 10 | < 10 | >80 | >80% | 1000 to 7940 |  |  | CCN(CC)c1ccc(NC(=O)c2cccc(C(=O)N(C)CCN3CCN(CCOCCOCCOCCOCCOCCOCCOC)C(=O)C3)c2)c(-c2cc(C(=O)N[C@H]3CCCc4ccccc43)ccn2)c1 [Example 327, (S)—N1-(2-(4-(2,5,8,11,14,17,20-heptaoxadocosan-22-yl)-3-oxopiperazin-1-yl)ethyl)-N3-(4-(diethylamino)-2-(4-(1,2,3,4-tetrahydronaphthalen-1-ylcarbamoyl)pyridin-2-yl)phenyl)-N1-methylisophthalamide] | 10 to 30 |  |  | 
 |  | >80 | >80% | 1000 to 7940 |  | 1000 to 7940 | CCN(CC)c1ccc(NC(=O)c2cccc(C(=O)N(C)CCN3CCC[C@H]3C(=O)NCCOCCOCCOCCOCCOCCOCCOCCOC)c2)c(-c2cc(C(=O)NCc3cccc(C(F)(F)F)c3)ccn2)c1 [Example 203, (S)—N^1-(2-(2-(2,5,8,11,14,17,20,23-octaoxapentacosan-25-ylcarbamoyl)pyrrolidin-1-yl)ethyl)-N^3-(4-(diethylamino)-2-(4-((3-(trifluoromethyl)benzyl)carbamoyl)pyridin-2-yl)phenyl)-N^1-methylisophthalamide] | ≤ 10 |  |  | 
 |  | >80 | >80% | 1000 to 7940 |  |  | CN(CCOCCOCCOCCC(=O)O)C(=O)c1cccc(C(=O)Nc2ccc(Cl)cc2-c2cc(C(=O)N[C@H]3CCCc4ccccc43)ccn2)c1 [Example 237, (S)-1-(3-(4-chloro-2-(4-(1,2,3,4-tetrahydronaphthalen-1-ylcarbamoyl)pyridin-2-yl)phenylcarbamoyl)phenyl)-2-methyl-1-oxo-5,8,11-trioxa-2-azatetradecan-14-oic acid] |  | ≤ 10 |  | 
 |  | >80 | >80% | < 1000 |  | < 1000 | CCN(CC)c1ccc(NC(=O)c2cccc(COCCOCCOCCOCCOCCOCCOCCOCCOC)c2)c(-c2cc(C(=O)NCc3cccc(C(F)(F)F)c3)ccn2)c1 [Example 173, 2-(2-(3-2,5,8,11,14,17,20,23,26-nonaoxaheptacosylbenzamido)-5-(diethylamino)phenyl)-N-(3-(trifluoromethyl)benzyl)isonicotinamide] |  |  |  | ≤ 10
